The values below are quoted from earlier work in patent publication EP4108230A1, “NEW DRY POWDER COMPOSITION OF TIOTROPIUM FOR INHALATION” (Laboratoires SMB, priority 2021, dated 2022).

For `C[N+]1(C)[C@@H]2C[C@@H](OC(=O)C(O)(c3cccs3)c3cccs3)C[C@H]1[C@@H]1O[C@@H]12` [Tiotropium bromide, (1α, 2β, 4 β, 5α, 7β)-7-[(Hydroxydi-2-thienylacetyl)oxy]-9,9-dimethyl-3-oxa-9-azoniatricyclo[3.3.1.02,4] nonane bromide monohydrate], under “methanol”, the solubility in methanol result is given as “soluble”. Also, the solubility in water result (water) was “sparingly soluble”.
